From ChEMBL document CHEMBL3885881, “DrugMatrix”

Species: Rattus norvegicus
Assay: DrugMatrix - Regimen: Daily Repeat
Type: toxicity, organism-based, Sprague-Dawley
Parameters: regimen Daily Repeat, gender Male, age 6-8 weeks
Conditions: in vivo, po, route oral GAVAGE, vehicle 100 % WATER; for BASOPHIL / EOSINOPHIL / ERYTHROCYTE COUNT / HEMATOCRIT / HEMOGLOBIN / LEUKOCYTE COUNT / LYMPHOCYTE / MEAN CORPUSCULAR HEMOGLOBIN / MEAN CORPUSCULAR HEMOGLOBIN CONCENTRATION / MEAN CORPUSCULAR VOLUME / MONOCYTE / NEUTROPHIL / PLATELET COUNT: tissue Blood; for ALANINE AMINOTRANSFERASE / ALBUMIN / ALKALINE PHOSPHATASE / ASPARTATE AMINOTRANSFERASE / BLOOD UREA NITROGEN / CHLORIDE / CHOLESTEROL / CREATINE PHOSPHOKINASE / CREATININE / GLUCOSE / PHOSPHORUS / POTASSIUM / SODIUM / TOTAL BILIRUBIN / TOTAL PROTEIN: tissue Plasma
[1] = 0 mg/kg, 72 h, dose level Control, time 3 day
[2] = 0 mg/kg, 120 h, dose level Control, time 5 day
[3] = 4 mg/kg, 72 h, dose level Low, time 3 day
[4] = 4 mg/kg, 120 h, dose level Low, time 5 day

SMILES: CCN(CC)CCOC(=O)C1(C2CCCCC2)CCCCC1 [DICYCLOMINE]
- BASOPHIL [1]: 0%
- EOSINOPHIL [1]: 0.5%
- ERYTHROCYTE COUNT [1]: 5.8 x10E6/uL
- HEMATOCRIT [1]: 35.07%
- HEMOGLOBIN [1]: 14.12 G/DL
- LEUKOCYTE COUNT [1]: 13.7 x10E3/uL
- LYMPHOCYTE [1]: 82.33%
- MEAN CORPUSCULAR HEMOGLOBIN [1]: 24.38 pg
- MEAN CORPUSCULAR HEMOGLOBIN CONCENTRATION [1]: 40.28 G/DL
- MEAN CORPUSCULAR VOLUME [1]: 60.52 fL
- MONOCYTE [1]: 2.67%
- NEUTROPHIL [1]: 14.5%
- PLATELET COUNT [1]: 911.5 x10E3/uL
- ALANINE AMINOTRANSFERASE [1]: 36.83 u/L
- ALBUMIN [1]: 3.75 G/DL
- ALKALINE PHOSPHATASE [1]: 399.83 u/L
- ASPARTATE AMINOTRANSFERASE [1]: 66 u/L
- BLOOD UREA NITROGEN [1]: 14.67 mg/dL
- CHLORIDE [1]: 101.67 MEQ/L
- CHOLESTEROL [1]: 66.33 mg/dL
- CREATINE PHOSPHOKINASE [1]: 139.5 u/L
- CREATININE [1]: 0.92 mg/dL
- GLUCOSE [1]: 175 mg/dL
- PHOSPHORUS [1]: 11.42 mg/dL
- POTASSIUM [1]: 7.03 MEQ/L
- SODIUM [1]: 148.5 MEQ/L
- TOTAL BILIRUBIN [1]: 1.13 mg/dL
- TOTAL PROTEIN [1]: 6.87 G/DL
- BASOPHIL [2]: 0%
- EOSINOPHIL [2]: 0.2%
- ERYTHROCYTE COUNT [2]: 6.02 x10E6/uL
- HEMATOCRIT [2]: 36.48%
- HEMOGLOBIN [2]: 14.38 G/DL
- LEUKOCYTE COUNT [2]: 12.34 x10E3/uL
- LYMPHOCYTE [2]: 83%
- MEAN CORPUSCULAR HEMOGLOBIN [2]: 23.92 pg
- MEAN CORPUSCULAR HEMOGLOBIN CONCENTRATION [2]: 39.44 G/DL
- MEAN CORPUSCULAR VOLUME [2]: 60.66 fL
- MONOCYTE [2]: 3%
- NEUTROPHIL [2]: 13.8%
- PLATELET COUNT [2]: 1190.6 x10E3/uL
- ALANINE AMINOTRANSFERASE [2]: 43 u/L
- ALBUMIN [2]: 3.73 G/DL
- ALKALINE PHOSPHATASE [2]: 393 u/L
- ASPARTATE AMINOTRANSFERASE [2]: 62.33 u/L
- BLOOD UREA NITROGEN [2]: 16.33 mg/dL
- CHLORIDE [2]: 101.67 MEQ/L
- CHOLESTEROL [2]: 65.5 mg/dL
- CREATINE PHOSPHOKINASE [2]: 130.67 u/L
- CREATININE [2]: 0.58 mg/dL
- GLUCOSE [2]: 180.67 mg/dL
- PHOSPHORUS [2]: 11.28 mg/dL
- POTASSIUM [2]: 7.05 MEQ/L
- SODIUM [2]: 148.17 MEQ/L
- TOTAL BILIRUBIN [2]: 0.72 mg/dL
- TOTAL PROTEIN [2]: 6.83 G/DL
- BASOPHIL [3]: 0%
- EOSINOPHIL [3]: 0.33%
- ERYTHROCYTE COUNT [3]: 6.01 x10E6/uL
- HEMATOCRIT [3]: 36.27%
- HEMOGLOBIN [3]: 14.33 G/DL
- LEUKOCYTE COUNT [3]: 12.73 x10E3/uL
- LYMPHOCYTE [3]: 85.67%
- MEAN CORPUSCULAR HEMOGLOBIN [3]: 23.9 pg
- MEAN CORPUSCULAR HEMOGLOBIN CONCENTRATION [3]: 39.57 G/DL
- MEAN CORPUSCULAR VOLUME [3]: 60.4 fL
- MONOCYTE [3]: 2%
- NEUTROPHIL [3]: 12%
- PLATELET COUNT [3]: 1302.67 x10E3/uL
- ALANINE AMINOTRANSFERASE [3]: 37.67 u/L
- ALBUMIN [3]: 3.63 G/DL
- ALKALINE PHOSPHATASE [3]: 354.67 u/L
- ASPARTATE AMINOTRANSFERASE [3]: 62.33 u/L
- BLOOD UREA NITROGEN [3]: 14 mg/dL
- CHLORIDE [3]: 102.67 MEQ/L
- CHOLESTEROL [3]: 65.33 mg/dL
- CREATINE PHOSPHOKINASE [3]: 133.33 u/L
- CREATININE [3]: 0.63 mg/dL
- GLUCOSE [3]: 179.67 mg/dL
- PHOSPHORUS [3]: 11.7 mg/dL
- POTASSIUM [3]: 6.7 MEQ/L
- SODIUM [3]: 150.67 MEQ/L
- TOTAL BILIRUBIN [3]: 0.53 mg/dL
- TOTAL PROTEIN [3]: 6.6 G/DL
- BASOPHIL [4]: 0%
- EOSINOPHIL [4]: 0.33%
- ERYTHROCYTE COUNT [4]: 6.36 x10E6/uL
- HEMATOCRIT [4]: 39.27%
- HEMOGLOBIN [4]: 15.3 G/DL
- LEUKOCYTE COUNT [4]: 12.77 x10E3/uL
- LYMPHOCYTE [4]: 87.33%
- MEAN CORPUSCULAR HEMOGLOBIN [4]: 24.03 pg
- MEAN CORPUSCULAR HEMOGLOBIN CONCENTRATION [4]: 38.97 G/DL
- MEAN CORPUSCULAR VOLUME [4]: 61.73 fL
- MONOCYTE [4]: 2.67%
- NEUTROPHIL [4]: 9.67%
- PLATELET COUNT [4]: 1082 x10E3/uL
- ALANINE AMINOTRANSFERASE [4]: 45 u/L
- ALBUMIN [4]: 3.6 G/DL
- ALKALINE PHOSPHATASE [4]: 424.67 u/L
- ASPARTATE AMINOTRANSFERASE [4]: 67.67 u/L
- BLOOD UREA NITROGEN [4]: 15.67 mg/dL
- CHLORIDE [4]: 104.33 MEQ/L
- CHOLESTEROL [4]: 65 mg/dL
- CREATINE PHOSPHOKINASE [4]: 107.33 u/L
- CREATININE [4]: 0.6 mg/dL
- GLUCOSE [4]: 195 mg/dL
- PHOSPHORUS [4]: 12.53 mg/dL
- POTASSIUM [4]: 6.67 MEQ/L
- SODIUM [4]: 151 MEQ/L
- TOTAL BILIRUBIN [4]: 0.63 mg/dL
- TOTAL PROTEIN [4]: 6.53 G/DL
